≈ marks a conversion by molar mass, not a printed value. Calls of active or inactive are those of the source. The rule behind the calls is not given here.
Experiments:
Candida albicans [1] = test: Antifungal activity against FLC-sensitive Candida albicans SC5314 measured after 24 hrs by microdilution method; type: functional
Candida albicans [2] = test: Synergistic antifungal activity against FLC-sensitive Candida albicans SC5314 measured after 24 hrs in presence of fluconazole by microdilution method; type: functional
Candida albicans [3] = test: Antifungal activity against Clinical FLC-resistant Candida albicans 23 measured after 24 hrs by microdilution method; type: functional
Candida albicans [4] = test: Synergistic antifungal activity against FLC-sensitive Candida albicans SC5314 assessed as fractional inhibitory concentration index measured after 24 hrs in presence of fluconazole by microdilution method; type: functional
Candida albicans [5] = test: Antifungal activity against clinical FLC-resistant Candida albicans 187 measured after 24 hrs by microdilution method; type: functional
Candida albicans [6] = test: Antifungal activity against clinical FLC-resistant Candida albicans 800 measured after 24 hrs by microdilution method; type: functional
Candida albicans [7] = test: Antifungal activity against clinical FLC-resistant Candida albicans 799 measured after 24 hrs by microdilution method; type: functional
Candida albicans [8] = test: Antifungal activity against clinical FLC-resistant Candida albicans 4508 measured after 24 hrs by microdilution method; type: functional
Candida albicans [9] = test: Antifungal activity against FLC-resistant Candida albicans ATCC 14053 measured after 24 hrs by microdilution method; type: functional
Candida albicans [10] = test: Synergistic antifungal activity against clinical FLC-resistant Candida albicans 808 measured after 24 hrs by microdilution method; type: functional
Candida albicans [11] = test: Synergistic antifungal activity against clinical FLC-resistant Candida albicans 381 measured after 24 hrs by microdilution method; type: functional
Candida albicans [12] = test: Synergistic antifungal activity against clinical FLC-resistant Candida albicans 800 measured after 24 hrs by microdilution method; type: functional
Candida albicans [13] = test: Synergistic antifungal activity against clinical FLC-resistant Candida albicans 3511 measured after 24 hrs by microdilution method; type: functional
Candida albicans [14] = test: Synergistic antifungal activity against FLC-resistant Candida albicans ATCC 14053 measured after 24 hrs by microdilution method; type: functional
Candida albicans [15] = test: Synergistic antifungal activity against clinical FLC-resistant Candida albicans 187 assessed as fractional inhibitory concentration index measured after 24 hrs in presence of fluconazole by microdilution method; type: functional
Candida albicans [16] = test: Synergistic antifungal activity against clinical FLC-resistant Candida albicans 381 assessed as fractional inhibitory concentration index measured after 24 hrs by microdilution method; type: functional
Candida albicans [17] = test: Synergistic antifungal activity against clinical FLC-resistant Candida albicans 602 assessed as fractional inhibitory concentration index measured after 24 hrs by microdilution method; type: functional
Candida albicans [18] = test: Synergistic antifungal activity against clinical FLC-resistant Candida albicans 799 assessed as fractional inhibitory concentration index measured after 24 hrs by microdilution method; type: functional
Candida albicans [19] = test: Synergistic antifungal activity against clinical FLC-resistant Candida albicans 3816 assessed as fractional inhibitory concentration index measured after 24 hrs by microdilution method; type: functional
Candida albicans [20] = test: Synergistic antifungal activity against clinical FLC-resistant Candida albicans 3511 assessed as fractional inhibitory concentration index measured after 24 hrs by microdilution method; type: functional
Candida albicans [21] = test: Synergistic antifungal activity against clinical FLC-resistant Candida albicans 4574 assessed as fractional inhibitory concentration index measured after 24 hrs by microdilution method; type: functional
Candida albicans [22] = test: Synergistic antifungal activity against FLC-resistant Candida albicans ATCC 10231 assessed as fractional inhibitory concentration index measured after 24 hrs by microdilution method; type: functional
Candida albicans [23] = test: Synergistic antifungal activity against FLC-resistant Candida albicans ATCC 14053 assessed as fractional inhibitory concentration index measured after 24 hrs by microdilution method; type: functional
Candida albicans [24] = test: Antifungal activity against FLC-resistant Candida albicans ATCC 14053 at 1 ug/mL measured over 48 hrs by time-killing assay; type: functional, organism-based; conditions: dose 1.0 µg/ml
Candida albicans [25] = test: Synergistic antifungal activity against FLC-resistant Candida albicans ATCC 14053 measured over 48 hrs in presence of fluconazole by time-killing assay; type: functional, organism-based
Candida albicans [26] = test: Antifungal activity against FLC-resistant Candida albicans ATCC 14053 cultured in spider medium assessed as inhibition of hyphal formation at 1 ug/ml measured after 2 hrs by inverted microscopy; type: functional, organism-based; conditions: dose 1.0 µg/ml
Candida albicans [27] = test: Synergistic antifungal activity against FLC-resistant Candida albicans ATCC 14053 assessed as inhibition of hyphal formation by measuring down regulation of RAS1 gene expression at 1 ug/ml measured after 16 to 18 hrs in presence of fluconazole by qRT-PCR analysis; type: functional, organism-based; conditions: dose 1.0 µg/ml, time 16-18 hrs
Candida albicans [28] = test: Synergistic antifungal activity against FLC-resistant Candida albicans ATCC 14053 assessed as inhibition of hyphal formation by measuring down regulation of CYR1 gene expression at 1 ug/ml measured after 16 to 18 hrs in presence of fluconazole by qRT-PCR analysis; type: functional, organism-based; conditions: dose 1.0 µg/ml, time 16-18 hrs
Candida albicans [29] = test: Synergistic antifungal activity against FLC-resistant Candida albicans ATCC 14053 assessed as inhibition of hyphal formation by measuring down regulation of EFG1 gene expression at 1 ug/ml measured after 16 to 18 hrs in presence of fluconazole by qRT-PCR analysis; type: functional, organism-based; conditions: dose 1.0 µg/ml, time 16-18 hrs
Candida albicans [30] = test: Synergistic antifungal activity against FLC-resistant Candida albicans ATCC 14053 assessed as inhibition of hyphal formation by measuring down regulation of ECE1 gene expression at 1 ug/ml measured after 16 to 18 hrs in presence of fluconazole by qRT-PCR analysis; type: functional, organism-based; conditions: dose 1.0 µg/ml, time 16-18 hrs
Candida albicans [31] = test: Induction of reactive oxygen species production in FLC-resistant Candida albicans ATCC 14053 at 1 ug/mL measured after 16 to 18 hrs in presence of fluconazole by DCFH-DA staining based fluorescence assay; type: functional, organism-based; conditions: dose 1.0 µg/ml, time 16-18 hrs
Candida albicans [32] = test: In vivo antifungal activity against FLC-resistant Candida albicans ATCC 14053 infected in Balb/c mouse assessed as survival rate at 7.5 to 15 mg/kg, ig measured daily for 6 days in presence of fluconazole (Rvb < 20%); type: functional; conditions: dose 7.5-15 mg/kg, time 6 day
[33] = Toxicity in Balb/c mouse infected with FLC-resistant Candida albicans ATCC 14053 assessed as weight loss at 7.5 to 15 mg/kg, ig measured daily for 6 days in presence of fluconazole; type: organism-based; conditions: in vivo, po, 144 h, dose 7.5-15 mg/kg, time 6 day
Candida albicans [34] = test: In vivo antifungal activity against FLC-resistant Candida albicans ATCC 14053 infected in Balb/c mouse assessed as reduction in liver fungal load at 7.5 to 15 mg/kg, ig measured after 6 days in presence of fluconazole; type: functional, organism-based; conditions: dose 7.5-15 mg/kg, time 6.0 day
Candida albicans [35] = test: In vivo antifungal activity against FLC-resistant Candida albicans ATCC 14053 infected in Balb/c mouse assessed as increase in organ coefficients of spleen at 7.5 to 15 mg/kg, ig measured after 6 days in presence of fluconazole; type: functional, organism-based; conditions: dose 7.5-15 mg/kg, time 6.0 day
Candida albicans [36] = test: In vivo antifungal activity against FLC-resistant Candida albicans ATCC 14053 infected in Balb/c mouse assessed as reduction in severity of lesions in kidney at 15 mg/kg, ig measured after 6 days by H and E staining based histopathological analysis; type: functional, organism-based; conditions: time 6.0 day
Candida albicans [37] = test: In vivo antifungal activity against FLC-resistant Candida albicans ATCC 14053 infected in Balb/c mouse assessed as restoration of kidney morphology at 7.5 to 15 mg/kg, ig measured after 6 days in presence of fluconazole by H and E staining based histopathological analysis; type: functional, organism-based; conditions: dose 7.5-15 mg/kg, time 6.0 day

CN1CCN(c2nc3ccccc3cc2/C=C/C(=O)c2ccc(N3CCN(Cc4ccc(C(F)(F)F)cc4)CC3)cc2)CC1
MIC80 (Candida albicans [1]): 27.8 µg/mL (≈ 46.3 µM) | MIC80 (Candida albicans [2]): 0.99 µg/mL | MIC80 (Candida albicans [3]): > 40 µg/mL | fractional inhibitory concentration index (FICI) (Candida albicans [4]): 0.21 | MIC80 (Candida albicans [5]): > 40 µg/mL | MIC80 (Candida albicans [6]): > 40 µg/mL | MIC80 (Candida albicans [7]): > 40 µg/mL | MIC80 (Candida albicans [8]): > 40 µg/mL | MIC80 (Candida albicans [9]): > 40 µg/mL | MIC80 (Candida albicans [10]): 0.38 µg/mL | MIC80 (Candida albicans [11]): 1.35 µg/mL | MIC80 (Candida albicans [12]): 1.28 µg/mL | MIC80 (Candida albicans [13]): 5.89 µg/mL | MIC80 (Candida albicans [14]): 0.87 µg/mL | fractional inhibitory concentration index (FICI) (Candida albicans [15]): 0.01 | fractional inhibitory concentration index (FICI) (Candida albicans [16]): 0.03 | fractional inhibitory concentration index (FICI) (Candida albicans [17]): 0.14 | fractional inhibitory concentration index (FICI) (Candida albicans [18]): 0.03 | fractional inhibitory concentration index (FICI) (Candida albicans [19]): 0.03 | fractional inhibitory concentration index (FICI) (Candida albicans [20]): 0.15 | fractional inhibitory concentration index (FICI) (Candida albicans [21]): 0.02 | fractional inhibitory concentration index (FICI) (Candida albicans [22]): 0.14 | fractional inhibitory concentration index (FICI) (Candida albicans [23]): 0.02 | Activity (Candida albicans [24]): inactive | Activity (Candida albicans [25]): Dose-Dependent Effect | inhibition (Candida albicans [26]): inactive | inhibition (Candida albicans [27]): Active | inhibition (Candida albicans [28]): Active | inhibition (Candida albicans [29]): Active | inhibition (Candida albicans [30]): Active | Activity (Candida albicans [31]): Active | Survival (Candida albicans [32]): 90% | Activity [33]: Non-Toxic | Activity (Candida albicans [34]): inactive | Activity (Candida albicans [35]): Active | Activity (Candida albicans [36]): inactive | Activity (Candida albicans [37]): Active
